Measurements published in the supplement of paper PMC10307832.

Legend:
Assay in all cases: relative viability (nuclei count vs DMSO), 5 days (fraction); higher = more cells survive
Dovitinib + Pictilisib = compound: CN1CCN(c2ccc3nc(-c4c(N)c5c(F)cccc5[nH]c4=O)[nH]c3c2)CC1 [Dovitinib] + CS(=O)(=O)N1CCN(Cc2cc3nc(-c4cccc5[nH]ncc45)nc(N4CCOCC4)c3s2)CC1 [Pictilisib] (partner 1 µM)
Method in brief: (§1)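 Lung cancer cell lines were pin-tool dosed in 1536-well plates on the day after seeding, with either a lone drug or a fixed anchor-drug dose plus five library-drug doses (not always all listed) in √10 steps. Nuclei were counted on 4× images after 5 days. Relative viability is the ratio of treated-well to vehicle-well nuclei counts, with each value a median of duplicate plates.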

Dovitinib + Bortezomib = compound: CN1CCN(c2ccc3nc(-c4c(N)c5c(F)cccc5[nH]c4=O)[nH]c3c2)CC1 [Dovitinib] + CC(C)C[C@H](NC(=O)[C@H](Cc1ccccc1)NC(=O)c1cnccn1)B(O)O [Bortezomib] (partner 0.002 µM)
Method in brief: as §1

Dovitinib + Palbociclib = compound: CN1CCN(c2ccc3nc(-c4c(N)c5c(F)cccc5[nH]c4=O)[nH]c3c2)CC1 [Dovitinib] + CC(=O)c1c(C)c2cnc(Nc3ccc(N4CCNCC4)cn3)nc2n(C2CCCC2)c1=O [Palbociclib] (partner 0.5 µM)
Method in brief: as §1

Dovitinib + Foretinib = compound: CN1CCN(c2ccc3nc(-c4c(N)c5c(F)cccc5[nH]c4=O)[nH]c3c2)CC1 [Dovitinib] + COc1cc2c(Oc3ccc(NC(=O)C4(C(=O)Nc5ccc(F)cc5)CC4)cc3F)ccnc2cc1OCCCN1CCOCC1 [Foretinib] (partner 0.25 µM)
Method in brief: as §1

Row | Cell Line | relative viability (Dovitinib + Pictilisib; first compound 0.02 µM) | relative viability (Dovitinib + Pictilisib; first compound 0.06325 µM) | relative viability (Dovitinib + Pictilisib; first compound 0.2 µM) | relative viability (Dovitinib + Pictilisib; first compound 0.6325 µM) | relative viability (Dovitinib + Pictilisib; first compound 2 µM) | relative viability (Dovitinib + Bortezomib; first compound 0.02 µM) | relative viability (Dovitinib + Bortezomib; first compound 0.06325 µM) | relative viability (Dovitinib + Bortezomib; first compound 0.2 µM) | relative viability (Dovitinib + Bortezomib; first compound 0.6325 µM) | relative viability (Dovitinib + Bortezomib; first compound 2 µM) | relative viability (Dovitinib + Palbociclib; first compound 0.02 µM) | relative viability (Dovitinib + Palbociclib; first compound 0.06325 µM) | relative viability (Dovitinib + Palbociclib; first compound 0.2 µM) | relative viability (Dovitinib + Palbociclib; first compound 0.6325 µM) | relative viability (Dovitinib + Palbociclib; first compound 2 µM) | relative viability (Dovitinib + Foretinib; first compound 0.02 µM) | relative viability (Dovitinib + Foretinib; first compound 0.06325 µM) | relative viability (Dovitinib + Foretinib; first compound 0.2 µM) | relative viability (Dovitinib + Foretinib; first compound 0.6325 µM) | relative viability (Dovitinib + Foretinib; first compound 2 µM)
1 | HCC-366 | 0.172 | 0.123 | 0.159 | 0.137 | 0.186 | 1.08 | 1.06 | 0.987 | 1.06 | 0.999 | 0.377 | 0.364 | 0.372 | 0.396 | 0.402 | 0.958 | 0.901 | 0.947 | 0.925 | 0.883
2 | HCC-827 | 0.932 | 0.942 | 1.07 | 0.963 | 1.01 | 1.08 | 1.07 | 1.04 | 1.09 | 1.05 | 0.527 | 0.461 | 0.409 | 0.53 | 0.528 | 0.983 | 1.07 | 1.14 | 1.09 | 1.09
3 | HOP-62 | 0.578 | 0.753 | 0.605 | 0.665 | 0.632 | 0.604 | 0.619 | 0.794 | 0.968 | 0.578 | 0.355 | 0.456 | 0.465 | 0.396 | 0.499 | 1.05 | 1.18 | 1.08 | 1.28 | 1.07
4 | IA-LM | 0.412 | 0.333 | 0.481 | 0.279 | 0.337 | 0.787 | 1.01 | 0.666 | 0.837 | 0.772 | – | – | – | – | – | 1.2 | 1.19 | 1.05 | 1.24 | 1.12
5 | LC-2-ad | 0.535 | 0.463 | 0.446 | 0.439 | 0.36 | 1.08 | 0.983 | 1.02 | 1.06 | 0.789 | 0.484 | 0.449 | 0.472 | 0.484 | 0.504 | 0.989 | 0.946 | 1.03 | 0.911 | 1.05
6 | LCLC-97TM1 | 0.361 | 0.135 | 0.215 | 0.205 | 0.207 | 0.754 | 0.783 | 0.371 | 0.867 | 0.566 | 0.252 | 0.26 | 0.236 | 0.185 | 0.209 | 0.986 | 0.974 | 1.01 | 0.922 | 1.01
7 | LK-2 | 0.525 | 0.546 | 0.475 | 0.516 | 0.57 | – | – | – | – | – | 0.648 | 0.734 | 0.676 | 0.646 | 0.854 | 1.39 | 1.21 | 1.4 | 0.946 | 1.04
8 | NCI-H358 | 0.343 | 0.308 | 0.367 | 0.356 | 0.45 | – | – | – | – | – | 0.153 | 0.141 | 0.118 | 0.135 | 0.135 | 0.619 | 0.674 | 0.683 | 0.626 | 0.761
9 | NCI-H522 | – | – | – | – | – | – | – | – | – | – | 1.07 | 1.05 | 0.972 | 1.19 | 1.06 | – | – | – | – | –
10 | NCI-H596 | 0.372 | 0.394 | 0.376 | 0.387 | 0.428 | 1.19 | 1.03 | 0.834 | 1.04 | 1.07 | – | – | – | – | – | 0.84 | 0.614 | 0.848 | 0.961 | 0.874
11 | NCI-H1395 | 0.563 | 0.518 | 0.651 | 0.783 | 0.612 | – | – | – | – | – | 0.608 | 0.575 | 0.661 | 0.605 | 0.652 | 1.07 | 1.12 | 0.935 | 0.947 | 1.02
12 | NCI-H1563 | 0.631 | 0.629 | 0.685 | 0.635 | 0.672 | 0.962 | 0.879 | 0.977 | 0.938 | 0.908 | – | – | – | – | – | 0.983 | 0.977 | 0.975 | 0.898 | 0.953
13 | NCI-H1648 | – | – | – | – | – | – | – | – | – | – | 0.325 | 0.287 | 0.235 | 0.247 | 0.255 | – | – | – | – | –
14 | NCI-H1703 | 0.215 | 0.24 | 0.294 | 0.232 | 0.208 | 0.47 | 0.335 | 0.18 | 0.328 | 0.291 | – | – | – | – | – | 0.326 | 0.332 | 0.445 | 0.355 | 0.328
15 | NCI-H1792 | 0.315 | 0.205 | 0.294 | 0.288 | 0.291 | 0.938 | 0.935 | 0.998 | 1.04 | 0.918 | 0.642 | 0.668 | 0.684 | 0.583 | 0.643 | – | – | – | – | –
16 | NCI-H1793 | 0.395 | 0.282 | 0.419 | 0.375 | 0.31 | – | – | – | – | – | 0.365 | 0.297 | 0.311 | 0.299 | 0.311 | 0.775 | 0.532 | 0.684 | 0.604 | 0.745
17 | NCI-H1944 | 0.325 | 0.332 | 0.335 | 0.33 | 0.36 | – | – | – | – | – | 0.305 | 0.356 | 0.323 | 0.346 | 0.308 | 0.833 | 0.906 | 0.864 | 0.903 | 0.86
18 | NCI-H2170 | 0.268 | 0.337 | 0.318 | 0.265 | 0.322 | – | – | – | – | – | 0.419 | 0.448 | 0.399 | 0.39 | 0.407 | 0.992 | 0.986 | 1.02 | 0.983 | 0.974
19 | NCI-H2342 | – | – | – | – | – | – | – | – | – | – | 0.621 | 0.517 | 0.553 | 0.621 | 0.537 | 1.14 | 1.02 | 1.09 | 1.17 | 1.01
20 | SK-MES-1 | 0.354 | 0.359 | 0.349 | 0.36 | 0.327 | – | – | – | – | – | 0.35 | 0.378 | 0.306 | 0.37 | 0.374 | 0.895 | 0.993 | 0.927 | 0.86 | 0.919
21 | SW 900 | – | – | – | – | – | – | – | – | – | – | 0.588 | 0.632 | 0.615 | 0.611 | 0.571 | 0.85 | 0.841 | 0.919 | 1 | 0.792
